Measurements from patent publication EP4800015A1, “AZABICYCLO DERIVATIVE AND PREPARATION METHOD THEREFOR, AND USE” (Zhejiang Hisun Pharmaceutical Co., Ltd., priority 2023, dated 2025).

Target: T1, recombinant human WRN (Homo sapiens, UniProt Q14191)
T1 construct: purchased BPS 101264
Test: Inhibition of WRN enzyme activity (ATPase), ADP-Glo Kinase Assay
Format: biochemical
Conditions: WRN protein 5 nM, Flap 0.1 nM, ATP 30 µM; read-out: IC50
How it was run: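 ATPase activity was measured by ADP-Glo luminescence after a 10-min room-temperature reaction with 30 µM ATP and 0.1 nM Flap26 oligonucleotide substrate. The 5 nM WRN had first been exposed to compound (0.004–1000 nM) for 15 min in pH 7.5 Tris buffer with 2 mM MgCl2. IC50 values came from log-concentration regression against the DMSO control.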

T1 sequence (Q14191 whole entry): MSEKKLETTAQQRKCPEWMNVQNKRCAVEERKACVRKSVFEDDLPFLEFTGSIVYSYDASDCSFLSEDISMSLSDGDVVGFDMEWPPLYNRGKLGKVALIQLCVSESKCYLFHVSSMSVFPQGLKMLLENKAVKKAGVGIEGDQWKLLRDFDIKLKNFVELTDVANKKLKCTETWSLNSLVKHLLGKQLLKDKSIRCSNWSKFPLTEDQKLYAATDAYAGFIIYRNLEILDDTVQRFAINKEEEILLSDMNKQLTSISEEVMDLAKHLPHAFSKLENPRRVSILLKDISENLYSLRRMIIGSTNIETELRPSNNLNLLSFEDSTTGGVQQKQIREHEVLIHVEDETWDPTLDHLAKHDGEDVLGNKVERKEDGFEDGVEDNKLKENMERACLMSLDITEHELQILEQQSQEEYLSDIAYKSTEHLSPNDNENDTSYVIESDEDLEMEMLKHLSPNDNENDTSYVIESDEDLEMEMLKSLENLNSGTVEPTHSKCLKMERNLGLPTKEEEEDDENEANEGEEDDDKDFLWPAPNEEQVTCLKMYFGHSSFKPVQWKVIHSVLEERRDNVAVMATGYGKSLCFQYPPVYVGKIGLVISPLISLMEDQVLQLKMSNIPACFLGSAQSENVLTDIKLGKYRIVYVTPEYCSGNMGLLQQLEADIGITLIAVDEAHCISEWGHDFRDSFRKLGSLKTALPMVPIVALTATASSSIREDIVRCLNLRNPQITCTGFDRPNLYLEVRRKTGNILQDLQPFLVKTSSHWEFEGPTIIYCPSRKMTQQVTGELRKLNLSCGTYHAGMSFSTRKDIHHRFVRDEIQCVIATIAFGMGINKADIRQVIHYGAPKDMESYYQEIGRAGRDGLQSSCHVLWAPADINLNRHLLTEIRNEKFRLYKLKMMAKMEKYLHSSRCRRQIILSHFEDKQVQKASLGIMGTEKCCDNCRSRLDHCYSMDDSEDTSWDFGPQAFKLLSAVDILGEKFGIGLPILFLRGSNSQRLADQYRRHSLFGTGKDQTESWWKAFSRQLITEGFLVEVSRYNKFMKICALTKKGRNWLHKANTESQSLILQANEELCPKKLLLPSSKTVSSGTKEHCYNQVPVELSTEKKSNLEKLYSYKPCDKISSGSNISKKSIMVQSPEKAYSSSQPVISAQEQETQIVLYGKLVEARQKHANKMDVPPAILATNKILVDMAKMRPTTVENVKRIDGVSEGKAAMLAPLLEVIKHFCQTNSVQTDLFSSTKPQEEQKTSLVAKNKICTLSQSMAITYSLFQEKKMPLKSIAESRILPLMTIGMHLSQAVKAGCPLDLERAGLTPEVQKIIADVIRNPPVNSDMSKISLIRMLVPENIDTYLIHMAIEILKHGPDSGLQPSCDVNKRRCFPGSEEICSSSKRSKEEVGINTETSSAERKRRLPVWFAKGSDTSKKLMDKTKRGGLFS

With `CCc1c(N2CCN(C(=O)c3ncnc(C)c3O)CC2)c(=O)n2nc(C3=CCCCOC3)nc2n1CC(=O)Nc1ccc(SC(F)(F)F)cc1Cl` [Example 165, N-(2-chloro-4-((trifluoromethyl)thio)phenyl)-2-(5-ethyl-6-(4-(5-hydroxy-6-methylpyrimidine-4-carbonyl)piperazin-1-yl)-7-oxo-2-(2,5,6,7-tetrahydrooxepin-3-yl)-[1,2,4]triazolo[1,5-a]pyrimidin-4(7H)-yl)acetamide] the IC50 was 1 to 100 nM.

For `CCc1c(N2CCN(C(=O)c3ncnc(C)c3O)CC2)c(=O)n2nc(-c3ccc4c(c3)OCC4)nc2n1CC(=O)Nc1ccc(S(F)(F)(F)(F)F)cc1` [Example 58, 2-(2-(2,3-dihydrobenzofuran-6-yl)-5-ethyl-6-(4-(5-hydroxy-6-methylpyrimidine-4-carbonyl)piperazin-1-yl)-7-oxo-[1,2,4]triazolo[1,5-a]pyrimidin-4(7H)-yl)-N-(4-(pentafluoro-λ^6-sulfaneyl)phenyl)acetamide], the IC50 was 1 to 100 nM.

In the case of `CCc1c(N2CCCN(C(=O)c3ncnc(C)c3O)CC2)c(=O)n2nc(-c3ccc4c(c3)CCO4)nc2n1CC(=O)Nc1ccc(C(F)(F)F)cc1Cl` [Example 107, N-(2-chloro-4-(trifluoromethyl)phenyl)-2-(2-(2,3-dihydrobenzofuran-5-yl)-5-ethyl-6-(4-(5-hydroxy-6-methylpyrimidine-4-carbonyl)-1,4-diazepan-1-yl)-7-oxo-[1,2,4]triazolo[1,5-a]pyrimidin-4(7 H)-yl)acetamide], the IC50 is reported as 1 to 100 nM.

Molecule `CCc1c(N2CCN(C(=O)c3ncccc3O)CC2)c(=O)n2nc(C3=CC4CCC3C4)nc2n1CC(=O)Nc1ccc(C(F)(F)F)cc1Cl` (stereo not drawn) [Example 41, 2-(2-(bicyclo[2.2.1]hept-2-en-2-yl)-5-ethyl-6-(4-(3-hydroxypicolinoyl)piperazin-1-yl)-7-oxo-[1,2,4]triazolo[1,5-a]pyrimidin-4(7H)-yl)-N-(2-chloro-4-(trifluoromethyl)phenyl)acetamide] has an IC50 of 1 to 100 nM.

`CCc1c(N2CCN(C(=O)c3ncnc(C)c3O)CC2)c(=O)n2nc(C3=CCCCCC3)nc2n1CC(=O)Nc1ccc(C(C)(C)C)cc1` [Example 26, N-(4-(tert-Butyl)phenyl)-2-(2-(cyclohept-1-en-1-yl)-5-ethyl-6-(4-(5-hydroxy-6-methylpyrimidine-4-carbonyl)piperazin-1-yl)-7-oxo-[1,2,4]triazolo[1,5-a]pyrimidin-4(7H)-yl)acetamide] was tested, and the IC50 was 1 to 100 nM.

With `CCc1c(N2CCN(C(=O)c3ncnc(C)c3O)CC2)c(=O)n2nc(N3CC4(COC4)C3)nc2n1CC(=O)Nc1ccc(C(F)(F)F)cc1Cl` [Example 16, N-(2-chloro-4-(trifluoromethyl)phenyl)-2-(5-ethyl-6-(4-(5-hydroxy-6-methylpyrimidine-4-carbonyl)piperazin-1-yl)-7-oxo-2-(2-oxa-6-azaspiro[3.3]heptan-6-yl)-[1,2,4]triazolo[1,5-a]pyrimidin-4(7H)-yl)acetamide] the IC50 was 1 to 100 nM.

Molecule `CCc1c(N2CCN(C(=O)c3ncccc3O)CC2)c(=O)n2nc(C3=CC4CC4C3)nc2n1CC(=O)Nc1ccc(C(F)(F)F)cc1Cl` (stereo not drawn) [Example 38, 2-(2-(bicyclo[3.1.0]hex-2-en-3-yl)-5-ethyl-6-(4-(3-hydroxypicolinoyl)piperazin-1-yl)-7-oxo-[1,2, 4]triazolo[1,5-a]pyrimidin-4(7H)-yl)-N-(2-chloro-4-(trifluoromethyl)phenyl)acetamide] has an IC50 of under 1 nM.

`CCc1c(N2CCN(C(=O)c3ncnc(C)c3O)CC2)c(=O)n2nc(C=C3CCCCC3)nc2n1CC(=O)Nc1ccc(C(F)(F)F)cc1Cl` [Example 20, N-(2-chloro-4-(trifluoromethyl)phenyl)-2-(2-(cyclohexylidenemethyl)-5-ethyl-6-(4-(5-hydroxy-6-methylpyrimidine-4-carbonyl)piperazin-1-yl)-7-oxo-[1,2,4]triazolo[1,5-a]pyrimidin-4(7H)-yl)ac etamide] showed an IC50 of 1 to 100 nM.

Molecule `CCc1c(N2CCN(C(=O)c3ccncc3O)CC2)c(=O)n2nc(C3=CCCCCC3)nc2n1CC(=O)Nc1ccc(C(F)(F)F)cc1OC` [Example 43, 2-(2-(cyclohept-1-en-1-yl)-5-ethyl-6-(4-(3-hydroxyisonicotinoyl)piperazin-1-yl)-7-oxo-[1,2,4]triazolo[1,5-a]pyrimidin-4(7H)-yl)-N-(2-methoxy-4-(trifluoromethyl)phenyl)acetamide] has an IC50 of 1 to 100 nM.

`CCc1c(N2CCN(C(=O)c3ncnc(C)c3O)CC2)c(=O)n2nc(N3CCC4(CCNC4=O)CC3)nc2n1CC(=O)Nc1ccc(C(F)(F)F)cc1Cl` [Example 13, N-(2-chloro-4-(trifluoromethyl)phenyl)-2-(5-ethyl-6-(4-(5-hydroxy-6-methylpyrimidine-4-carbonyl)piperazin-1-yl)-7-oxo-2-(1-oxo-2,8-diazaspiro[4.5]decan-8-yl)-[1,2,4]triazolo[1,5-a]pyrimidin-4(7H)-yl)acetamide] gave an IC50 of 1 to 100 nM.

With `CCc1c(N2CCN(C(=O)c3ncnc(C)c3O)CC2)c(=O)n2nc(C3=CC4CNCC4C3)nc2n1CC(=O)Nc1ccc(S(F)(F)(F)(F)F)cc1` (stereo not drawn) [Example 146, 2-(5-Ethyl-2-(1,2,3,3a,4,6a-hexahydrocyclopenta[c]pyrrol-5-yl)-6-(4-(5-hydroxy-6-methylpyrimidine-4-carbonyl)piperazin-1-yl)-7-oxo-[1,2,4]triazolo[1,5-a]pyrimidin-4(7H)-yl)-N-(4-(pentafluoro-λ^6-sulfaneyl)phenyl)acetamide] the IC50 was 1 to 100 nM.

In the case of `CCc1c(N2CCN(C(=O)c3ncnc(C)c3O)CC2)c(=O)n2nc(C(C)=C3CCC3)nc2n1CC(=O)Nc1ccc(S(F)(F)(F)(F)F)cc1` [Example 61, 2-(2-(1-cyclobutylideneethyl)-5-ethyl-6-(4-(5-hydroxy-6-methylpyrimidine-4-carbonyl)piperazin-1-yl)-7-oxo-[1,2,4]triazolo[1,5-a]pyrimidin-4(7H)-yl)-N-(4-(pentafluoro-λ^6-sulfaneyl)phenyl)ace tamide], the IC50 is reported as 1 to 100 nM.

With `[2H]C([2H])([2H])Sc1ccc(NC(=O)Cn2c(CC)c(N3CCN(C(=O)c4ncnc(C)c4O)CC3)c(=O)n3nc(C4=CCCCOC4)nc23)c(Cl)c1` [Example 166, N-(2-chloro-4-((methyl-d3)thio)phenyl)-2-(5-ethyl-6-(4-(5-hydroxy-6-methylpyrimidine-4-carbonyl)piperazin-1-yl)-7-oxo-2-(2,5,6,7-tetrahydrooxepin-3-yl)-[1,2,4]triazolo[1,5-a]pyrimidin-4(7H )-yl)acetamide] the IC50 was 1 to 100 nM.

Molecule `CCc1c(N2CCCN(C(=O)c3ncnc(C)c3O)CC2)c(=O)n2nc(C3=CCCCCC3)nc2n1CC(=O)Nc1ccc(S(F)(F)(F)(F)F)cc1` [Example 94, 2-(2-(cyclohept-1-en-1-yl)-5-ethyl-6-(4-(5-hydroxy-6-methylpyrimidine-4-carbonyl)-1,4-diazepan-1-yl)-7-oxo-[1,2,4]triazolo[1,5-a]pyrimidin-4(7H)-yl)-N-(4-(pentafluoro-λ^6-sulfaneyl)phenyl)a cetamide] has an IC50 of 1 to 100 nM.

With `CCc1c(N2CCN(C(=O)c3ncnc(C)c3O)CC2)c(=O)n2nc(NCCCCl)nc2n1CC(=O)Nc1ccc(C(F)(F)F)cc1Cl` [Example 15, N-(2-chloro-4-(trifluoromethyl)phenyl)-2-(2-((3-chloropropyl)amino)-5-ethyl-6-(4-(5-hydroxy-6-methylpyrimidine-4-carbonyl)piperazin-1-yl)-7-oxo-[1,2,4]triazolo[1,5-a]pyrimidin-4(7H)-yl)ace tamide] the IC50 was 1 to 100 nM.
